# Results as given in patent US8999954B2, “Inhibitors of polysialic acid de-N-acetylase and methods for using the same” (Childern's Hospital & Research Center at Oakland, priority 2007, dated 2015).
# How the values were obtained:
# [1] = tested on: Jurkat T-cell leukemia cells; test: Cell viability assay (Guava ViaCount, flow cytometry); assay type: cell-based, human; conditions: 96 hrs incubation, increasing concentrations (FIG. 8)
# [2] = tested on: CHP-134 neuroblastoma cells; test: as above; assay type: cell-based, human; conditions: for induction of apoptosis / EC50: CHP-134 cells; for EC50: Homo sapiens, 24 hrs incubation, read-out: concentration for half-maximal decrease in viability
# Description: (§1) Human melanoma SK-MEL 28, neuroblastoma CHP-134, and T-cell leukemia Jurkat cell lines were obtained from ATCC (Manassas, Va.). All cell lines were grown in RPMI 1640 media (UCSF Cell Culture Facility, San Francisco, Calif.), supplemented with 10% heat-inactivated fetal bovine serum (Gemini Bio-Products, West Sacramento, Calif.), non-essential amino acids, 100 units/ml penicillin/streptomycin, 110 μg/ml sodium pyruvate, and 2 mM glutamine (UCSF Cell Culture Facility). Jurkat cells were grown to a concentration of not more than 10^6 cells/ml and adherent SK-MEL 28 and CHP-134 cells to a concentration of not more than 5×10^4 cells/cm^2.
# (§2) The effect of inhibitors of PSA de-N-acetylase on the viability of human tumor cell lines in culture was measured using a cell viability assay. Cells were incubated with N-acyl or methanesulfonyl hexosamine derivatives for 24 hours. Jurkat cells were incubated at a concentration of 2×10^5 cells/ml in round-bottom 96-well plates (Falcon), 200 μl/well. Adherent cells were incubated at a concentration of 1×10^5 cells/ml in flat-bottom 96-well plates (Nunc). Plates were then spun at 1,000×g for 5 minutes. SK-MEL 28 cells were release from the plate using a trypsin/EDTA solution (UCSF Cell Culture Facility). CHP-134 cells were released using CDR (Guava Technologies). All cells were resuspended in Guava ViaCount reagent and read on a Guava EasyCyte flow cytometer, using the Guava ViaCount assay (all from Guava Technologies).
# SK-MEL 28 melanoma cells [3] = test: as above; assay type: cell-based, human
# Description: as §1, §2
# [4] = tested on: Jurkat T-cell leukemia cells; test: as above; assay type: cell-based, human; conditions: for apoptosis and cell death in Jurkat cells / cell viability of Jurkat cells: 24 hrs, concentration of 10 mM (FIG. 7); for viability of Jurkat cells / EC50: 24 hrs incubation; for viability of Jurkat cells: concentration in cell culture media varied (FIG. 3, 4, 9); for EC50: Homo sapiens, read-out: concentration for half-maximal decrease in viability
# Description: as §1, §2
# [5] = tested on: CHP-134 neuroblastoma cells; test: Cell surface expression of N-propionyl PSA (SEAM 18 binding, flow cytometry); assay type: cell-based, human; conditions: CHP-134, 10 mM supplement in media, 24 hours (FIG. 2)
# Description: (§3) CHP-134, SK-MEL 28 and Jurkat cells were cultured in media containing N-propionyl galactosamine, N-propionyl mannosamine, or N-acetyl mannosamine (10 mM) or no supplement for 24 hours. To measure mAb binding, the cells were released from the plate, pelleted by centrifugation, washed with PBS, and fixed with 1% formaldehyde in PBS. All procedures were performed on ice. Cells were blocked with PBS containing 3% goat serum, then were incubated overnight at 4° C. with one of the following primary antibodies (˜1 μg/ml), diluted in 3% goat serum: irrelevant isotype control mAbs IgG2a or IgG2b (Southern Biotech), SEAM 3 (Granoff et al. J. Immunol. 1998, 160:5028), or SEAM 18 (Granoff et al. J. Immunol. 1998, 160:5028). Cells were then washed and labeled with goat-anti-mouse FITC (1:1000, Jackson Immunoresearch, West Grove, Pa.). Fluorescence was measured on a Guava EasyCyte flow cytometer, using the Guava ExpressPlus assay (Guava Technologies) and the results are expressed as the percent of cells that are positive for mAb binding.
# SK-MEL 28 melanoma cells [6] = test: as above; assay type: cell-based, human; conditions: SK-MEL 28, 10 mM supplement in media, 24 hours (FIG. 2)
# Description: as §3
# [7] = tested on: Jurkat T-cell leukemia cells; test: as above; assay type: cell-based, human; conditions: 10 mM supplement in media, 24 hours (FIG. 2)
# Description: as §3
# [8] = biological target: T1, membrane transporters for N-acetyl neuraminic acid (Homo sapiens, UniProt Q9NRA2); conditions: lysosomal membrane transporter; Essentials of Glycobiology 1999; read-out: Michaelis constant, Km, for forming a substrate/transporter complex; cited from earlier work
# T1 sequence (Q9NRA2 1-495): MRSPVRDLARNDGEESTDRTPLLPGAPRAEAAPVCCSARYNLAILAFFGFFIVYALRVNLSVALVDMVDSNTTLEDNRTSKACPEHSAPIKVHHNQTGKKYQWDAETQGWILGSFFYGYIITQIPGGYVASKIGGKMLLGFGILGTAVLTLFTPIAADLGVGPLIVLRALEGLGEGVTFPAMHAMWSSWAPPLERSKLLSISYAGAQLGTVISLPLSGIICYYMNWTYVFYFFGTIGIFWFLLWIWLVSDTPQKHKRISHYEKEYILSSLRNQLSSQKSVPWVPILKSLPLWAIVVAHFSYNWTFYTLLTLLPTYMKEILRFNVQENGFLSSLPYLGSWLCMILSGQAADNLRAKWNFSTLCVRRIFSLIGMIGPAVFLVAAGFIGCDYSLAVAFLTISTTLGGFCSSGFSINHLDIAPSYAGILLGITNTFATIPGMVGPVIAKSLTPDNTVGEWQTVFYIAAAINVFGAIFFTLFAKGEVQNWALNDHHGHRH
# [9] = 96 hrs incubation, increasing concentrations (FIG. 8)
# [10] = 24 hours, concentration-dependent (FIG. 4)
compound,measurement,setting,value
"CS(=O)(=O)N[C@H]1C(O)O[C@H](CO)[C@H](O)[C@@H]1O (some centres unmarked) [GalNMeSul, N-Methyanesulfonyl Galactosamine]",cell viability of Jurkat cells,[1],reduced
same,cell viability of CHP-134 cells,[2]; [9],reduced
same,induction of apoptosis,[2],induce apoptosis
same,cell viability of SK-MEL 28 cells,SK-MEL 28 melanoma cells [3]; [9],reduced
same,induction of apoptosis,SK-MEL 28 melanoma cells [3]; SK-MEL 28 cells,induce apoptosis
same,apoptosis and cell death in Jurkat cells,[4],inducing apoptosis and cell death
same,cell viability of Jurkat cells,[4],decrease cell viability
same,induction of apoptosis,[4]; Jurkat cells,induce apoptosis
"C=CC(=O)N[C@@H]1C(O)O[C@H](CO)[C@@H](O)[C@@H]1O (some centres unmarked) [N-acryl mannosamine, N-Acryl Mannosamine]",cell viability of CHP-134 cells,[2]; [10],reducing the cell viability
same,cell viability of SK-MEL 28 cells,SK-MEL 28 melanoma cells [3]; [10],reducing the cell viability
same,apoptosis and cell death of Jurkat cells,"[4]; 24 hours, four concentrations (FIG. 3)",inducing apoptosis and cell death
same,viability of Jurkat cells,[4],reduces the viability
same,sensitivity of Jurkat cells to killing relative to the other cell lines,[4]; Jurkat vs CHP-134 and SK-MEL 28 (FIG. 4),approximately 10 fold
CCC(=O)N[C@@H]1C(O)O[C@H](CO)[C@@H](O)[C@@H]1O (some centres unmarked) [N-propionyl mannosamine],percentage of cells positive for SEAM 18 binding,[5],increases
same,percentage of cells positive for SEAM 18 binding,SK-MEL 28 melanoma cells [6],increases
same,percentage of cells positive for SEAM 18 binding,[7],increases
CC(=O)N[C@H]1[C@H]([C@H](O)[C@H](O)CO)OC(O)(C(=O)O)C[C@@H]1O (some centres unmarked) [N-acetyl neuraminic acid],Km,[8],~500 µM
"C=CC(=O)N[C@H]1C(O)O[C@H](CO)[C@H](O)[C@@H]1O (some centres unmarked) [GalNAcryl, N-Acryl Galactosamine]",EC50,[2],3 mM
same,EC50,[4]; Jurkat cells,3 mM
"O=C(CCl)N[C@@H]1C(O)O[C@H](CO)[C@@H](O)[C@@H]1O (some centres unmarked) [ManNClAc, N-Chloroacetyl Mannosamine]",EC50,[2],~1 mM
same,EC50,"SK-MEL 28 melanoma cells [3]; Homo sapiens, SK-MEL 28 cells, 24 hrs incubation, read-out: concentration for half-maximal decrease in viability",~8 mM
same,EC50,[4]; Jurkat cells,~1 mM
CCC(=O)N[C@H]1C(O)O[C@H](CO)[C@H](O)[C@@H]1O (some centres unmarked) [N-propionyl galactosamine],percentage of cells positive for SEAM 18 binding,[5],increases
same,percentage of cells positive for SEAM 18 binding,SK-MEL 28 melanoma cells [6],increases
same,percentage of cells positive for SEAM 18 binding,[7],increases
Poly alpha (2→8) N-Acryl Neuraminic Acid [N-acryl PSA],viability of Jurkat cells,[4],reduced viability
same,concentration required to induce cell death compared with N-acryl mannosamine,"[4]; Jurkat cells, 24 hrs (FIG. 9)",higher
"CS(=O)(=O)N[C@@H]1C(O)O[C@H](CO)[C@@H](O)[C@@H]1O (some centres unmarked) [ManNMeSul, N-Methyanesulfonyl Mannosamine]",cell viability of Jurkat cells,[1],reduced
same,cell viability of CHP-134 cells,[2]; [9],reduced
same,induction of apoptosis,[2],induce apoptosis
same,cell viability of SK-MEL 28 cells,SK-MEL 28 melanoma cells [3]; [9],reduced
same,induction of apoptosis,SK-MEL 28 melanoma cells [3]; SK-MEL 28 cells,induce apoptosis
same,apoptosis and cell death in Jurkat cells,[4],inducing apoptosis and cell death
same,cell viability of Jurkat cells,[4],decrease cell viability
same,induction of apoptosis,[4]; Jurkat cells,induce apoptosis
